Results published in patent publication US20240148962A1, “INTRAVENOUS DELIVERY OF LARGE VOLUMES OF GAS WITH HIGHLY PRESSURIZED SUPERSATURATED SOLUTION” (Regents of the University of Minnesota, priority 2021, published 2024).

Key:
[1] = Oxygen content dissolved in saline under different pressure and temperature, with and without nanobubbles; assay type: physicochemical; settings: FIG. 4A; 5° C. and 5 atm
Text: Nanobubbles (triangles) are compared to control and macrobubbles (dots).

[2] = 1 atm, room temperature; cited from earlier work

In the case of `O=O` [oxygen], the “oxygen content in saline without nanobubbles” value [1] is listed as 200 ml of oxygen per L of saline and the “content of oxygen, previously published evidence” value [2] is listed as 43 ml/liter.
